Test results reported in ChEMBL document CHEMBL5104131, “Pyrimidine-conjugated fluoroquinolones as new potential broad-spectrum antibacterial agents” (Bioorg Med Chem Lett, 2022).
Converted amounts (≈) assume the structure as drawn.

Tests used:
Assay type in all cases: functional
Staphylococcus aureus [1] = assay: Antibacterial activity against methicillin-resistant Staphylococcus aureus N315 assessed as bacterial growth inhibition by serial dilution method
Enterococcus faecalis = assay: Antibacterial activity against Enterococcus faecalis assessed as bacterial growth inhibition by serial dilution method
Staphylococcus aureus [2] = assay: Antibacterial activity against Staphylococcus aureus assessed as bacterial growth inhibition by serial dilution method
Staphylococcus aureus [3] = assay: Antibacterial activity against Staphylococcus aureus ATCC 25923 assessed as bacterial growth inhibition by serial dilution method
Staphylococcus aureus [4] = assay: Antibacterial activity against Staphylococcus aureus ATCC 29213 assessed as bacterial growth inhibition by serial dilution method
Klebsiella pneumoniae = assay: Antibacterial activity against Klebsiella pneumoniae assessed as bacterial growth inhibition by serial dilution method
Escherichia coli [5] = assay: Antibacterial activity against Escherichia coli assessed as bacterial growth inhibition by serial dilution method
Escherichia coli [6] = assay: Antibacterial activity against Escherichia coli ATCC 25922 assessed as bacterial growth inhibition by serial dilution method
Pseudomonas aeruginosa [7] = assay: Antibacterial activity against Pseudomonas aeruginosa assessed as bacterial growth inhibition by serial dilution method
Pseudomonas aeruginosa [8] = assay: Antibacterial activity against Pseudomonas aeruginosa ATCC 27853 assessed as bacterial growth inhibition by serial dilution method
Acinetobacter baumannii = assay: Antibacterial activity against Acinetobacter baumannii assessed as bacterial growth inhibition by serial dilution method
Aspergillus fumigatus = assay: Antifungal activity against Aspergillus fumigatus assessed as inhibition of fungal growth

Structure (SMILES) | MIC (Staphylococcus aureus [1]) | MIC (Enterococcus faecalis) | MIC (Staphylococcus aureus [2]) | MIC (Staphylococcus aureus [3]) | MIC (Staphylococcus aureus [4]) | MIC (Klebsiella pneumoniae) | MIC (Escherichia coli [5]) | MIC (Escherichia coli [6]) | MIC (Pseudomonas aeruginosa [7]) | MIC (Pseudomonas aeruginosa [8]) | MIC (Acinetobacter baumannii) | MIC (Aspergillus fumigatus)
Cc1ccnc(N2CCN(c3cc4c(cc3F)c(=O)c(C(=O)O)cn4C3CC3)CC2)n1 | 64 µg/mL (≈ 151 µM) | 64 µg/mL (≈ 151 µM) | 256 µg/mL (≈ 605 µM) | 4 µg/mL (≈ 9.45 µM) | 32 µg/mL (≈ 75.6 µM) | 64 µg/mL (≈ 151 µM) | 64 µg/mL (≈ 151 µM) | 8 µg/mL (≈ 18.9 µM) | 64 µg/mL (≈ 151 µM) | 64 µg/mL (≈ 151 µM) | 2 µg/mL (≈ 4.72 µM) | 
O=C(O)c1cn(C2CC2)c2cc(N3CCN(c4ncc(Br)cn4)CC3)c(F)cc2c1=O | 128 µg/mL (≈ 262 µM) | 128 µg/mL (≈ 262 µM) | 16 µg/mL (≈ 32.8 µM) | 16 µg/mL (≈ 32.8 µM) | 8 µg/mL (≈ 16.4 µM) | 128 µg/mL (≈ 262 µM) | 64 µg/mL (≈ 131 µM) | 128 µg/mL (≈ 262 µM) | 16 µg/mL (≈ 32.8 µM) | 32 µg/mL (≈ 65.5 µM) | 32 µg/mL (≈ 65.5 µM) | 
CCn1cc(C(=O)O)c(=O)c2cc(F)c(N3CCN(c4nccc(C(F)(F)F)n4)CC3)cc21 | > 256 µg/mL | 64 µg/mL (≈ 138 µM) | > 256 µg/mL | 256 µg/mL (≈ 550 µM) | 128 µg/mL (≈ 275 µM) | 128 µg/mL (≈ 275 µM) | > 256 µg/mL | 256 µg/mL (≈ 550 µM) | 128 µg/mL (≈ 275 µM) | > 256 µg/mL | 128 µg/mL (≈ 275 µM) | 
CCn1cc(C(=O)O)c(=O)c2cc(F)c(N3CCN(c4ncc(F)cn4)CC3)cc21 | 64 µg/mL (≈ 154 µM) | 4 µg/mL (≈ 9.63 µM) | 4 µg/mL (≈ 9.63 µM) | 16 µg/mL (≈ 38.5 µM) | 16 µg/mL (≈ 38.5 µM) | 128 µg/mL (≈ 308 µM) | 16 µg/mL (≈ 38.5 µM) | 128 µg/mL (≈ 308 µM) | 32 µg/mL (≈ 77 µM) | 256 µg/mL (≈ 616 µM) | > 256 µg/mL | 
CCn1cc(C(=O)O)c(=O)c2cc(F)c(N3CCN(c4ncc(Br)cn4)CC3)cc21 | 128 µg/mL (≈ 269 µM) | 64 µg/mL (≈ 134 µM) | 8 µg/mL (≈ 16.8 µM) | 64 µg/mL (≈ 134 µM) | 64 µg/mL (≈ 134 µM) | 256 µg/mL (≈ 537 µM) | 64 µg/mL (≈ 134 µM) | 128 µg/mL (≈ 269 µM) | 8 µg/mL (≈ 16.8 µM) | 64 µg/mL (≈ 134 µM) | 64 µg/mL (≈ 134 µM) | 
Cc1cnc(N2CCN(c3cc4c(cc3F)c(=O)c(C(=O)O)cn4C3CC3)CC2)nc1 | 256 µg/mL (≈ 605 µM) | 4 µg/mL (≈ 9.45 µM) | 128 µg/mL (≈ 302 µM) | 2 µg/mL (≈ 4.72 µM) | 64 µg/mL (≈ 151 µM) | > 256 µg/mL | 64 µg/mL (≈ 151 µM) | 8 µg/mL (≈ 18.9 µM) | 2 µg/mL (≈ 4.72 µM) | 256 µg/mL (≈ 605 µM) | 128 µg/mL (≈ 302 µM) | 
CCn1cc(C(=O)O)c(=O)c2cc(F)c(N3CCN(c4ncccn4)CC3)cc21 | 2 µg/mL (≈ 5.03 µM) | 8 µg/mL (≈ 20.1 µM) | 64 µg/mL (≈ 161 µM) | 8 µg/mL (≈ 20.1 µM) | 32 µg/mL (≈ 80.5 µM) | 4 µg/mL (≈ 10.1 µM) | 16 µg/mL (≈ 40.3 µM) | 64 µg/mL (≈ 161 µM) | 16 µg/mL (≈ 40.3 µM) | 128 µg/mL (≈ 322 µM) | 64 µg/mL (≈ 161 µM) | 2 µg/mL (≈ 5.03 µM)
CCn1cc(C(=O)O)c(=O)c2cc(F)c(N3CCNCC3)cc21 [NORFLOXACIN] | 8 µg/mL (≈ 25.1 µM) | 4 µg/mL (≈ 12.5 µM) | 4 µg/mL (≈ 12.5 µM) | 2 µg/mL (≈ 6.26 µM) | 4 µg/mL (≈ 12.5 µM) | 4 µg/mL (≈ 12.5 µM) | 8 µg/mL (≈ 25.1 µM) | 8 µg/mL (≈ 25.1 µM) | 4 µg/mL (≈ 12.5 µM) | 4 µg/mL (≈ 12.5 µM) | 2 µg/mL (≈ 6.26 µM) | 
CCn1cc(C(=O)O)c(=O)c2cc(F)c(N3CCN(c4nccc(C)n4)CC3)cc21 | 32 µg/mL (≈ 77.8 µM) | 1 µg/mL (≈ 2.43 µM) | 4 µg/mL (≈ 9.72 µM) | 4 µg/mL (≈ 9.72 µM) | 16 µg/mL (≈ 38.9 µM) | 4 µg/mL (≈ 9.72 µM) | 64 µg/mL (≈ 156 µM) | 1 µg/mL (≈ 2.43 µM) | 128 µg/mL (≈ 311 µM) | 16 µg/mL (≈ 38.9 µM) | 256 µg/mL (≈ 622 µM) | 
CCn1cc(C(=O)O)c(=O)c2cc(F)c(N3CCN(c4ncc(OC)cn4)CC3)cc21 | 1 µg/mL (≈ 2.34 µM) | 1 µg/mL (≈ 2.34 µM) | 2 µg/mL (≈ 4.68 µM) | 32 µg/mL (≈ 74.9 µM) | 8 µg/mL (≈ 18.7 µM) | 64 µg/mL (≈ 150 µM) | 64 µg/mL (≈ 150 µM) | 2 µg/mL (≈ 4.68 µM) | 32 µg/mL (≈ 74.9 µM) | 128 µg/mL (≈ 299 µM) | 128 µg/mL (≈ 299 µM) | 2 µg/mL (≈ 4.68 µM)
